Data reported in US11478471B2, “Methods and compositions for treating diabetes, metabolic syndrome and other conditions” (priority 2005, dated 2022).

Assay: Toxicokinetics in the 28 day dog study of DIO-902 (with racemic ketoconazole group a);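 note: beagle dogs dosed orally once daily within a 28-day GLP study, 3 animals per sex per group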
Conditions: beagle, plasma; for AUC(0-t): AUC(0-12); for concentration at 0 h / concentration at 1 h / concentration at 2 h / concentration at 4 h / concentration at 8 h / concentration at 12 h: Drug concentration in plasma
[1] = female, po, 2 mg/kg, dogs, 2 mg/kg oral, day 1, F
[2] = female, po, 2 mg/kg, dogs, 2 mg/kg oral, day 28, F
[3] = female, po, 6.5 mg/kg, dogs, 6.5 mg/kg oral, day 28, F
[4] = female, po, 6.5 mg/kg, dogs, 6.5 mg/kg oral, day 1, F
[5] = female, po, 20 mg/kg, dogs, 20 mg/kg oral, day 28, F
[6] = female, po, 20 mg/kg, dogs, 20 mg/kg oral, day 1, F
[7] = male, po, 2 mg/kg, dogs, 2 mg/kg oral, day 28, M
[8] = male, po, 2 mg/kg, dogs, 2 mg/kg oral, day 1, M

CC(=O)N1CCN(c2ccc(OC[C@@H]3CO[C@@](Cn4ccnc4)(c4ccc(Cl)cc4Cl)O3)cc2)CC1 [DIO-902, 2S,4R cis-1-acetyl-4-[4-[[2-(2,4-dichlorophenyl)-2-(1H-imidazol-1-ylmethyl)-1,3-dioxolan-4-yl]methoxyl]phenyl]piperazine]
Tmax (both, oral, 20 mg/kg, Tmax values, dogs, 2, 6.5 and 20 mg/kg, Day 1): 1 to 8 h
Tmax (both, oral, 20 mg/kg, Tmax values, dogs, 2, 6.5 and 20 mg/kg, Day 28): 1 to 12 h
Cmax (both, po, 20 mg/kg/day, dogs, 20 mg/kg/day, day 28): 9940 to 9950 ng/mL
AUC(0-t) (female, po, 2 mg/kg, dogs, 2 mg/kg oral, day 1, F, n = 1): 2570 ng·h/mL
AUC(0-t) (female, po, 2 mg/kg, dogs, 2 mg/kg oral, day 28, F, n = 1): 2760 ng·h/mL
Cmax [1]: 450 ng/mL
Cmax [2]: 750 ng/mL
concentration at 0 h [1]: < 250 ng/mL
concentration at 1 h [1]: < 250 ng/mL
concentration at 2 h [1]: 270 ng/mL
concentration at 4 h [1]: 280 ng/mL
concentration at 8 h [1]: < 250 ng/mL
concentration at 12 h [1]: < 250 ng/mL
concentration at 0 h [2]: < 250 ng/mL
concentration at 1 h [2]: 290 ng/mL
concentration at 2 h [2]: 520 ng/mL
concentration at 4 h [2]: 300 ng/mL
concentration at 8 h [2]: < 250 ng/mL
concentration at 12 h [2]: < 250 ng/mL
Tmax (female, po, 2 mg/kg, Tmax Range, dogs, 2 mg/kg oral, day 1, F): 2 to 4 h
Tmax (female, po, 2 mg/kg, Tmax Range, dogs, 2 mg/kg oral, day 28, F): 1 to 8 h
AUC(0-t) (female, po, 6.5 mg/kg, dogs, 6.5 mg/kg oral, day 1, F, n = 1): 4700 ng·h/mL
AUC(0-t) [3]: 12900 ng·h/mL
Cmax [4]: 2570 ng/mL
Cmax [3]: 2410 ng/mL
concentration at 0 h [4]: < 250 ng/mL
concentration at 1 h [4]: < 250 ng/mL
concentration at 2 h [4]: 440 ng/mL
concentration at 4 h [4]: 2320 ng/mL
concentration at 8 h [4]: 500 ng/mL
concentration at 12 h [4]: < 250 ng/mL
concentration at 0 h [3]: < 250 ng/mL
concentration at 1 h [3]: 250 ng/mL
concentration at 2 h [3]: 1250 ng/mL
concentration at 4 h [3]: 1850 ng/mL
concentration at 8 h [3]: 1270 ng/mL
concentration at 12 h [3]: 340 ng/mL
Tmax (female, po, 6.5 mg/kg, Tmax Range, dogs, 6.5 mg/kg oral, day 1, F): 2 to 4 h
Tmax (female, po, 6.5 mg/kg, Tmax Range, dogs, 6.5 mg/kg oral, day 28, F): 2 to 8 h
AUC(0-t) (female, po, 20 mg/kg, dogs, 20 mg/kg oral, day 1, F, n = 2): 80600 ng·h/mL
AUC(0-t) [5]: 77800 ng·h/mL
Cmax [6]: 14700 ng/mL
Cmax [5]: 9950 ng/mL
concentration at 0 h [6]: < 250 ng/mL
concentration at 1 h [6]: < 250 ng/mL
concentration at 2 h [6]: 650 ng/mL
concentration at 4 h [6]: 9720 ng/mL
concentration at 8 h [6]: 9950 ng/mL
concentration at 12 h [6]: 5440 ng/mL
concentration at 0 h [5]: 2880 ng/mL
concentration at 1 h [5]: 1780 ng/mL
concentration at 2 h [5]: 2430 ng/mL
concentration at 4 h [5]: 6420 ng/mL
concentration at 8 h [5]: 9830 ng/mL
concentration at 12 h [5]: 6530 ng/mL
Tmax (female, po, 20 mg/kg, Tmax Range, dogs, 20 mg/kg oral, day 1, F): 4 to 8 h
Tmax (female, po, 20 mg/kg, Tmax Range, dogs, 20 mg/kg oral, day 28, F): 8 to 12 h
AUC(0-t) (male, po, 2 mg/kg, dogs, 2 mg/kg oral, day 1, M, n = 1): 2390 ng·h/mL
AUC(0-t) [7]: 3260 ng·h/mL
Cmax [8]: 510 ng/mL
Cmax [7]: 680 ng/mL
concentration at 0 h [8]: < 250 ng/mL
concentration at 1 h [8]: 400 ng/mL
concentration at 2 h [8]: 450 ng/mL
concentration at 4 h [8]: < 250 ng/mL
concentration at 8 h [8]: < 250 ng/mL
concentration at 12 h [8]: < 250 ng/mL
concentration at 0 h [7]: < 250 ng/mL
concentration at 1 h [7]: 660 ng/mL
concentration at 2 h [7]: 540 ng/mL
concentration at 4 h [7]: 380 ng/mL
concentration at 8 h [7]: < 250 ng/mL
